Laboratory results: the NIST ThermoML archive (doi:10.1016/j.jct.2013.09.024)
± gives the expanded uncertainty stated by the source.

Key:
[1] = Liquid, Vibrating tube method
[2] = xn = mol fraction of the nth substance listed; conditions: Liquid, Vibrating tube method, x2 = 0

CC1(C)C(=O)[C@]2(C)CC[C@H]1C2 [(-)-fenchone]
mass density [kg/m3], [1]
Conditions | 101 kPa | 20000 kPa | 25000 kPa | 30000 kPa | 35000 kPa | 40000 kPa
283.15 K | 953.27 ± 0.12 | 965.6 ± 1 | 968.5 ± 1 | 971.3 ± 1 | 974 ± 1 | 976.6 ± 1
298.15 K | 940.67 ± 0.12 | 954 ± 1 | 957.1 ± 1 | 960 ± 1 | 962.9 ± 1 | 965.7 ± 1
313.15 K | 928.04 ± 0.12 | 942.3 ± 1 | 945.6 ± 1 | 948.7 ± 1 | 951.8 ± 1 | 954.7 ± 1
328.15 K | 915.39 ± 0.13 | 930.8 ± 1 | 934.2 ± 1 | 937.6 ± 1 | 940.9 ± 1 | 944 ± 1

CCO [ethanol]
mass density [kg/m3], [1]
Conditions | 101 kPa | 20000 kPa | 25000 kPa | 30000 kPa | 35000 kPa | 40000 kPa
283.15 K | 797.99 ± 0.13 | 813.3 ± 1 | 816.8 ± 1 | 820.2 ± 1 | 823.4 ± 1.1 | 826.6 ± 1.1
298.15 K | 785.2 ± 0.13 | 801.7 ± 1 | 805.4 ± 1 | 809 ± 1.1 | 812.5 ± 1.1 | 815.8 ± 1.1
313.15 K | 772.15 ± 0.14 | 790.1 ± 1 | 794.1 ± 1 | 797.8 ± 1.1 | 801.5 ± 1.1 | 805 ± 1.1
328.15 K | 758.71 ± 0.14 | 778.1 ± 1 | 782.4 ± 1.1 | 786.4 ± 1.1 | 790.3 ± 1.1 | 794.1 ± 1.1

CCO [ethanol] + CC1(C)C(=O)[C@]2(C)CC[C@H]1C2
mass density [kg/m3], [2]
Conditions | 101 kPa | 20000 kPa | 25000 kPa | 30000 kPa | 35000 kPa | 40000 kPa
283.15 K | 797.99 ± 0.13 | 813.3 ± 1 | 816.8 ± 1 | 820.2 ± 1 | 823.4 ± 1.1 | 826.6 ± 1.1
298.15 K | 785.2 ± 0.13 | 801.7 ± 1 | 805.4 ± 1 | 809 ± 1.1 | 812.5 ± 1.1 | 815.8 ± 1.1
313.15 K | 772.15 ± 0.14 | 790.1 ± 1 | 794.1 ± 1 | 797.8 ± 1.1 | 801.5 ± 1.1 | 805 ± 1.1
328.15 K | 758.71 ± 0.14 | 778.1 ± 1 | 782.4 ± 1.1 | 786.4 ± 1.1 | 790.3 ± 1.1 | 794.1 ± 1.1
